Patent US20130273003A1, “Therapies for Treating Hepatitis C Virus Infection” (priority 2012, published 2013)

How the values were obtained:
[1] = system: hepatitis C virus (HCV) replicon; assay: HCV Replicon Cell Assay; type: cell-based
Method: Cells containing hepatitis C virus (HCV) replicon were maintained in DMEM containing 10% fetal bovine serum (FBS), 0.25 mg per ml of G418, with appropriate supplements (media A).
On day 1, replicon cell monolayer was treated with a trypsin:EDTA mixture, removed, and then media A was diluted into a final concentration of 100,000 cells per ml wit. 10,000 cells in 100 μl were plated into each well of a 96-well tissue culture plate, and cultured overnight in a tissue culture incubator at 37° C.
On day 2, compounds (in 100% DMSO) were serially diluted into DMEM containing 2% FBS, 0.5% DMSO, with appropriate supplements (media B). The final concentration of DMSO was maintained at 0.5% throughout the dilution series.
Media on the replicon cell monolayer was removed, and then media B containing various concentrations of compounds was added. […]
A Taqman real-time RT-PCR quantification assay was set up with two sets of specific primers and probe. […] Total RNA extractants from treated HCV replicon cells was added to the PCR reactions for quantification of both HCV and BVDV RNA in the same PCR well. […] The level of HCV RNA in each well was calculated according to a standard curve run in the same PCR plate. The percentage of inhibition or decrease of HCV RNA level due to compound treatment was calculated using the DMSO or no compound control as 0% of inhibition. […]

HCV = assay: REALIZE trial: SVR by IL28B genotype in Peg-IFN/RBV experienced patients; type: in vivo, Hepatitis C virus; details: TVR 750 mg every 8 hours in combination with Peg-IFN/RBV, treatment-experienced patients
Method: This exploratory sub-analysis evaluated virologic response by IL28B genotype (rs12979860) in the Phase III TVR REALIZE trial. REALIZE is an international, multicentre, randomized, double-blind, placebo-controlled trial in Peg-IFN/RBV experienced patients; including prior relapsers, prior partial responders and prior null responders. Patients were included in this sub-analysis if they had consented to genetic testing.
FIG. 1 is a graphic depiction of the REALIZE study design. Drugs were administered in the following dosages: Peg-IFN alfa-2a=180 μg/week; RBV=1000-1200 mg/day; TVR=750 mg every 8 hours; Pbo=placebo. Overall, 527/662 (80%) patients enrolled in REALIZE consented to genetic testing; Data from T12/PR48 and T12(DS)/PR48 arms were pooled since no differences were observed between TVR arms. Randomization was stratified by viral load and prior response. Stopping rules were applied for TVR (Weeks 4, 6, and 8) and Peg-IFN/RBV (Weeks 12, 24, and 36).

genotype 1 HCV = assay: ADVANCE trial: SVR rates, overall and by IL28B genotype; type: in vivo, Hepatitis C virus; details: for SVR rate: overall (full analysis population)
Method: IL28B genotype was determined in de-identified left-over specimens available from treatment-naïve genotype 1 HCV patients from ADVANCE U.S. sites. Due to the requirements of the de-identification procedure, only samples from Caucasian patients were tested. A series of associated clinical data was retained with the de-identified samples: HCV genotype, prior treatment response, assigned study arm, study completion, RVR, SVR, baseline viral load, EVR, undetectable at EOT.
IL28B genotyping was performed using 100 ng DNA from whole blood or peripheral blood mononuclear cell preparations with TaqMan® PCR, rs12979860 (ABI)

Compound: CCC[C@H](NC(=O)[C@@H]1[C@H]2CCC[C@H]2CN1C(=O)[C@@H](NC(=O)[C@@H](NC(=O)c1cnccn1)C1CCCCC1)C(C)(C)C)C(=O)C(=O)NC1CC1 [VX-950]
- activity in the replicon assay [1]: significant activity
- SVR rates versus Peg-IFN/RBV alone (HCV): increased SVR rates across all IL28B genotypes
- SVR rate (genotype 1 HCV; T8PR arm): 69%
- SVR rate (genotype 1 HCV; T12PR arm): 75%
- SVR (genotype 1 HCV; T12PR, IL28B CC): 90%
- patients receiving 24 weeks of total therapy (genotype 1 HCV; T12PR, IL28B CC): 78%
- SVR (genotype 1 HCV; T12PR, IL28B CT): 71%
- SVR (genotype 1 HCV; T12PR, IL28B TT): 73%
- RVR and eRVR rates compared to peginterferon alfa-2a/ribavirin alone (genotype 1 HCV; telaprevir-based regimen): improved RVR and eRVR rates across all IL28B genotypes
- achieved SVR (genotype 1 HCV; telaprevir-based regimen, eRVR, IL28B CC): 97%
- achieved SVR (genotype 1 HCV; telaprevir-based regimen, eRVR, IL28B CT): 88%
- achieved SVR (genotype 1 HCV; telaprevir-based regimen, eRVR, IL28B TT): 85%
- achieved SVR (genotype 1 HCV; telaprevir-based regimen, no eRVR, IL28B CC): 63%
- achieved SVR (genotype 1 HCV; telaprevir-based regimen, no eRVR, IL28B CT): 33%
- achieved SVR (genotype 1 HCV; telaprevir-based regimen, no eRVR, IL28B TT): 46%
- achieved SVR (genotype 1 HCV; telaprevir-based regimen, patients who did not have eRVR (48 weeks of therapy)): 43%
- achieved SVR (genotype 1 HCV; telaprevir-based regimen, patients who had eRVR (24 weeks of therapy)): 91%
